Data as given in publication PMC9616531 (Plant Biotechnology Journal, 2022).

Tested on: UGT72B23
Experiment: UDP-Glo glycosyltransferase assay
Assay type: biochemical, Camellia sinensis
Conditions: read-out: apparent Km; UDP-glucose co-substrate, pH 7.5, 40 °C

Compound | Km [µM]
O=C(O[C@@H]1Cc2c(O)cc(O)cc2O[C@@H]1c1ccc(O)c(O)c1)c1cc(O)c(O)c(O)c1 [epicatechin gallate] | 31.2
O=C(O[C@@H]1Cc2c(O)cc(O)cc2O[C@@H]1c1cc(O)c(O)c(O)c1)c1cc(O)c(O)c(O)c1 [epigallocatechin gallate] | 27.9
